From US6353128B1, “Phenyl acetamides as sPLA2 inhibitors” (Eli Lilly and Company, priority 1996, dated 2002)

Experiments:
Titration (66% DMF) = assay type: physicochemical
Excerpt: Titration (66% DMF): pK=7.4, Apparent Mol. Wt.=463 (457 Calculated) Mass Spectral Analysis (FAB) m/z: 458 [(M+1)^+]

| melting point | Structure (SMILES) | pK (Titration (66% DMF)) |
| --- | --- | --- |
| – | NC(=O)C(O)c1ccc(Oc2cccc(-c3ccccc3)c2)cc1OCCCCC(=O)[O-].[Na+] (racemic) [Example 7, Sodium(RS)-2-(4-carboxybutoxy)-4-(3-phenylphenoxy)phenyl-2-hydroxyacetamide] | 7.4 |
| 170 to 171 °C | NC(=O)Cc1ccc(Oc2ccc(F)cc2)cc1 [Example 1, 4-(4-fluorophenoxy)phenylacetamide] | – |
| 161 to 163 °C | NC(=O)Cc1ccc(Oc2ccccc2)cc1 [Example 2, 4-phenoxyphenylacetamide] | – |
| 115 to 117 °C | NC(=O)Cc1cccc(Oc2ccccc2)c1 [Example 3, 3-phenoxyphenylacetamide] | – |
